Assay results reported in patent US20260076937A1, “COMPOSITION FOR PREVENTING OR TREATING AUTOIMMUNE DISEASES COMPRISING A BCAT1 INHIBITOR” (Seoul National University R&DB Foundation, priority 2024, published 2026).
“Also recorded” adds a separate entry of the source.

Columns and labels:
Format in all cases: cell-based
[1] = system: human CD4+ memory T cells; assay: scRNA-seq analysis of CD4+ memory T cells; conditions: Bi2 10 μM
Method: Freshly purified CD4^+ memory T-cells were stimulated for 72 hours with anti-CD3/CD28 coated microbeads in the absence or presence of Bi2. Samples from four different donors were multiplexed for 30 minutes at 4° C. with a hashtag oligo. Totalseq™ anti-human hashtag antibody (Biolegend, USA) was then used to perform in three experimental conditions (TCR-stimulated cells with Bi2, TCR-stimulated cells without Bi2, and cells without TCR stimulation). Tagged cells were pooled and loaded into a Chromium system (10× Genomics, Pleasanton, CA) and encapsulated into a single droplet targeting about 40,000 cells for each GEM (Gel Beads-in-emulsion). Chromium Single Cell 5′ Kit (10× Genomics) was used to generate scRNA-seq and TCR libraries according to the manufacturer's instructions. Demultiplexing and read alignment to the bound human genome was performed using Cell Ranger (v6.1.2).

[2] = system: human CD4+ memory T cells; assay: Cholesterol analysis in cell lysates; conditions: TCR stimulation 3 days; Bi2 10 μM, statin 10 μM
Method: Total cholesterol amount in cultured cells was determined using a fluorometric Amplex™ Red Cholesterol Assay Kit (Thermo Fisher Scientific) according to the manufacturer's instructions.

human CD4+ naive T cells = assay: Th17 polarization of human CD4+ naive T cells (RT-qPCR, ELISA); conditions: Th17-polarized conditions, 7 days, Bi2 10 μM
Method: BCAT1 regulates HIF-1α through mTORC1 activation in human CD4^+ T cells. FIG. 11A relates to ubiquitin-proteasome degradation of HIF1a and inhibitors for each step. In FIG. 11B, CD4+ memory T cells were pretreated with Bi2 (10 μM), CoCl2 (100 μM), VH298 (100 μM) or MG132 (5 μM) for 1 hour and stimulated with anti-CD3/CD28 coated microbeads for 8 hours. Cell lysates were immunoblotted against HIF-1α (n=3 independent experiments). In FIG. 11C, CD4+ memory T cells were stimulated for 24 hours and then treated with CHX (0.2 μg/ml) for the specified time before being obtained. Cell lysates were immunoblotted against HIF-1α (n=3 independent experiments). In FIG. 11D, CD4^+ memory T cells were stimulated for a specified time with or without Bi2 (10 μM). […] Cell viability was analyzed by 7-AAD staining using a flow cytometer (n=3). […] The mRNA levels of genes involved in leucine metabolism were quantified using RT-qPCR (n=3). […] The mRNA expression of the signature genes of Th17 (i-j) or Th1 (k-l) and cytokines was measured by RT-qPCR and ELISA, respectively (n=5-7). […]
Total RNA was prepared using TRIzol reagent (Life Technologies, Grand Island, NY), followed by cDNA synthesis (Promega, Madison, WI), followed by real-time quantitative RT-PCR with a CFX system (Bio-Rad, Hercules, CA) using SensiFAST SYBR® Lo-ROX (Bioline, London. UK). […]

O=C(NNS(=O)(=O)c1ccccc1C(F)(F)F)c1cc2cc(Cl)ccc2o1 [Bi2, BCATc inhibitor 2] was tested, and the “HIF1A expression in activated Th17 cells” value ([1]; 72 hours TCR stimulation) was “down-regulated”, the “activated Th17 cell population (clusters 8, 13, 15)” value ([1]; 72 hours TCR stimulation) was “decreased” and the “T-cell activation, cytokine signaling and cytokine production pathways in activated Th17 subset” value ([1]; pathway enrichment of DEGs) was “decrease”. The intracellular cholesterol [2] was “slight increase; also recorded: significantly increased”, the IL-17A secretion (human CD4+ naive T cells) was “decreased” and the “mRNA levels of RORC and IL17A” value (human CD4+ naive T cells) was “significantly reduced”.
